From PubChem BioAssay (NCI)
Several values for one entry are separate records, joined by “and”; a condition that tells them apart may be missing. Equal values may be shown once.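 Test compounds were applied to cells in 96-well plates for 48 hours at 5 doses. At the GI50, growth is halved. TGI: total growth inhibition.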

Columns and labels:
Assay in all cases: inhibition of tumour cell growth, NCI panel, 48 h
[1] = tested on: LXFL 529 NSCLC
[2] = tested on: 786-0 renal
[3] = tested on: NCI-H460 lung
[4] = tested on: NCI-H23 lung
[5] = tested on: ACHN renal
[6] = tested on: SF-295 CNS
[7] = tested on: HCT-116 colon
[8] = tested on: CCRF-CEM leukemia
[9] = tested on: DLD-1 colon
[10] = tested on: SK-OV-3 ovarian
[11] = tested on: K-562 leukemia
[12] = tested on: HT29 colon
[13] = tested on: MALME-3M melanoma
[14] = tested on: LOX IMVI melanoma
[15] = tested on: EKVX NSCLC
[16] = tested on: OVCAR-3 ovarian
[17] = tested on: CAKI-1 renal
[18] = tested on: SK-MEL-5 melanoma
[19] = tested on: A498 renal
[20] = tested on: NCI-H522 lung
[21] = tested on: OVCAR-4 ovarian
[22] = tested on: OVCAR-8 ovarian
[23] = tested on: NCI-H226 lung
[24] = tested on: SNB-75 CNS
[25] = tested on: RXF 393 renal
[26] = tested on: HCC-2998 colon
[27] = tested on: XF 498 CNS
[28] = tested on: TK-10 renal
[29] = tested on: U251 CNS
[30] = tested on: KM12 colon
[31] = tested on: IGROV1 ovarian
[32] = tested on: KM20L2 colon
[33] = tested on: SNB-19 CNS
[34] = tested on: SW-620 colon
[35] = tested on: UO-31 renal
[36] = tested on: SR leukemia
[37] = tested on: DMS 273 small cell lung
[38] = tested on: HOP-92 NSCLC
[39] = tested on: HCT-15 colon
[40] = tested on: HOP-62 NSCLC
[41] = tested on: MOLT-4 leukemia
[42] = tested on: M14 melanoma
[43] = tested on: COLO 205 colon
[44] = tested on: SF-268 CNS
[45] = tested on: SK-MEL-28 melanoma
[46] = tested on: M19-MEL melanoma
[47] = tested on: SNB-78 CNS
[48] = tested on: SK-MEL-2 melanoma
[49] = tested on: A549 NSCLC
[50] = tested on: HL-60(TB) leukemia
[51] = tested on: SF-539 CNS
[52] = tested on: UACC-257 melanoma
[53] = tested on: SN12C renal
[54] = tested on: UACC-62 melanoma
[55] = tested on: HOP-18 NSCLC
[56] = tested on: OVCAR-5 ovarian
[57] = tested on: RPMI-8226 leukemia
[58] = tested on: DMS 114 small cell lung
[59] = tested on: RXF-631 renal

## C[CH2][Sn]([CH2]C)([O]C(=O)c1ccc(F)cc1)[O][Sn]([CH2]C)([CH2]C)[O]C(=O)c1ccc(F)cc1
[1]
  GI50: 13 µM
  TGI: 25.8 µM
[2]
  GI50: 53.6 µM
  TGI: > 100 µM
[3]
  GI50: > 100 µM
  TGI: > 100 µM
[4]
  GI50: 41 µM
  TGI: > 100 µM
[5]
  GI50: 79.8 µM
  TGI: > 100 µM
[6]
  GI50: > 100 µM
  TGI: > 100 µM
[7]
  GI50: > 100 µM
  TGI: > 100 µM
[8]
  GI50: 10.7 µM
  TGI: 57.6 µM
[9]
  GI50: 23.6 µM
  TGI: > 100 µM
[10]
  GI50: > 100 µM
  TGI: > 100 µM
[11]
  GI50: 20.1 µM
  TGI: 78.6 µM
[12]
  GI50: > 100 µM
  TGI: > 100 µM
[13]
  GI50: 16.9 µM
  TGI: 32 µM
[14]
  GI50: 37.4 µM
  TGI: > 100 µM
[15]
  GI50: > 100 µM
  TGI: > 100 µM
[16]
  GI50: > 100 µM
  TGI: > 100 µM
[17]
  GI50: 12.2 µM
  TGI: 24.9 µM
[18]
  GI50: > 100 µM
  TGI: > 100 µM
[19]
  GI50: 16.4 µM
  TGI: 30 µM
[20]
  GI50: 3.01 µM
  TGI: 12.4 µM
[21]
  GI50: > 100 µM
  TGI: > 100 µM
[22]
  GI50: > 100 µM
  TGI: > 100 µM
[23]
  GI50: 30.8 µM
  TGI: 87.5 µM
[24]
  GI50: 58.5 µM
  TGI: > 100 µM
[25]
  GI50: 15.7 µM
  TGI: 29.9 µM
[26]
  GI50: > 100 µM
  TGI: > 100 µM
[27]
  GI50: 16.4 µM
  TGI: 31 µM
[28]
  GI50: 23.5 µM
  TGI: 62.3 µM
[29]
  GI50: 29.8 µM
  TGI: > 100 µM
[30]
  GI50: > 100 µM
  TGI: > 100 µM
[31]
  GI50: > 100 µM
  TGI: > 100 µM
[32]
  GI50: > 100 µM
  TGI: > 100 µM
[33]
  GI50: > 100 µM
  TGI: > 100 µM
[34]
  GI50: 22.8 µM
  TGI: 45.5 µM
[35]
  GI50: > 100 µM
  TGI: > 100 µM
[36]
  GI50: 41.1 µM
  TGI: > 100 µM
[37]
  GI50: > 100 µM
  TGI: > 100 µM
[38]
  GI50: 19.1 µM
  TGI: 59 µM
[39]
  GI50: > 100 µM
  TGI: > 100 µM
[40]
  GI50: > 100 µM
  TGI: > 100 µM
[41]
  GI50: 47.1 µM
  TGI: > 100 µM
[42]
  GI50: > 100 µM
  TGI: > 100 µM
[43]
  GI50: 59.7 µM
  TGI: > 100 µM
[44]
  GI50: 67.4 µM
  TGI: > 100 µM
[45]
  GI50: 33.9 µM
  TGI: > 100 µM
[46]
  GI50: 45.9 µM
  TGI: > 100 µM
[47]
  GI50: 21.1 µM
  TGI: 50.4 µM
[48]
  GI50: 28.5 µM
  TGI: 83.3 µM
[49]
  GI50: > 100 µM
  TGI: > 100 µM
[50]
  GI50: > 100 µM
  TGI: > 100 µM
[51]
  GI50: 67.5 µM
  TGI: > 100 µM
[52]
  GI50: 41.1 µM
  TGI: > 100 µM
[53]
  GI50: 67.2 µM
  TGI: > 100 µM
[54]
  GI50: > 100 µM
  TGI: > 100 µM
[55]
  GI50: > 100 µM
  TGI: > 100 µM
[56]
  GI50: > 100 µM
  TGI: > 100 µM

## COC(C)(C)[C@H](O)C(O)CC(C)[C@@H]1CCC23CC12CCC1[C@@]2(C)CCC(OC(C)=O)C(C)(C)C2CC(OC2OC(COC(C)=O)C(O)C(O)C2O)[C@]13C (some centres undefined)
[1]
  GI50: 6.23 µM
  TGI: 12.8 µM and 19.2 µM
[2]
  GI50: 11.5 µM
  TGI: 15 µM and 25.2 µM
[3]
  GI50: 4.69 µM
  TGI: 10.3 µM and 14.7 µM
[4]
  GI50: 11.3 µM
  TGI: 16 µM and 25.2 µM
[5]
  GI50: 6.08 µM
  TGI: 11.4 µM and 20 µM
[6]
  GI50: 2.17 µM
  TGI: 10.1 µM and 7.53 µM
[7]
  GI50: 4.78 µM
  TGI: 8.67 µM and 13.4 µM
[8]
  GI50: 4.08 µM
  TGI: 9.67 µM and 17.3 µM
[9]
  GI50: 3.13 µM
  TGI: 6.29 µM and 9.73 µM
[10]
  GI50: 7.76 µM
  TGI: 17.7 µM and 20.4 µM
[11]
  GI50: 4.68 µM
  TGI: 10.6 µM and 21.4 µM
[12]
  GI50: 1.83 µM
  TGI: 2.49 µM and 3.67 µM
[13]
  GI50: 12.8 µM
  TGI: 17.1 µM and 26 µM
[14]
  GI50: 4.04 µM
  TGI: 9.97 µM and 15.9 µM
[15]
  GI50: 10.9 µM
  TGI: 15.4 µM and 24.7 µM
[16]
  GI50: 4.26 µM
  TGI: 10.8 µM and 15.9 µM
[17]
  GI50: 8.27 µM
  TGI: 10.2 µM and 20.2 µM
[18]
  GI50: 10.2 µM
  TGI: 12.8 µM and 23.3 µM
[19]
  GI50: 17 µM
  TGI: 18.7 µM and 34.7 µM
[20]
  GI50: 3.85 µM
  TGI: 6.72 µM and 17.7 µM
[21]
  GI50: 7.01 µM
  TGI: 13.1 µM and 21.3 µM
[22]
  GI50: 6.13 µM
  TGI: 14 µM and 20.7 µM
[23]
  TGI: 16.9 µM
[24]
  GI50: 4.32 µM
  TGI: 11.3 µM and 17.1 µM
[57]
  GI50: 3.77 µM
  TGI: 6.54 µM and 17.1 µM
[25]
  TGI: 11.8 µM
[26]
  TGI: 4.94 µM
[58]
  GI50: 3.62 µM
  TGI: 8.65 µM and 12.8 µM
[28]
  GI50: 10.7 µM
  TGI: 14.9 µM and 23.4 µM
[29]
  GI50: 5.3 µM
  TGI: 9.64 µM and 17.7 µM
[30]
  GI50: 4.23 µM
  TGI: 7.55 µM and 14.1 µM
[31]
  GI50: 3.59 µM
  TGI: 8.11 µM and 15 µM
[32]
  GI50: 2.63 µM
  TGI: 2.12 µM and 7.94 µM
[33]
  TGI: 14.5 µM and 20 µM
[34]
  GI50: 4.67 µM
  TGI: 13.7 µM and 15.3 µM
[35]
  TGI: 14.5 µM and 18.6 µM
[37]
  GI50: 7.7 µM
  TGI: 10.2 µM and 23.4 µM
[38]
  GI50: 4.37 µM
  TGI: 11.6 µM and 16.9 µM
[39]
  GI50: 6.86 µM
  TGI: 6.28 µM and 19.8 µM
[40]
  TGI: 17.2 µM and 23.9 µM
[41]
  GI50: 0.00625 µM
  TGI: 26.7 µM and 15.8 µM
[42]
  GI50: 3.58 µM
  TGI: 9.78 µM and 14.2 µM
[43]
  GI50: 2.17 µM
  TGI: 11.3 µM and 4.58 µM
[44]
  GI50: 6.87 µM
  TGI: 12.4 µM and 21.3 µM
[45]
  GI50: 5.41 µM
  TGI: 12.2 µM and 18.9 µM
[46]
  GI50: 4.04 µM
  TGI: 10.2 µM and 13.8 µM
[47]
  GI50: 14 µM
  TGI: 17.9 µM and 31.7 µM
[48]
  GI50: 4.34 µM
  TGI: 17.6 µM and 14.8 µM
[49]
  GI50: 3.67 µM
  TGI: 10.1 µM and 13.8 µM
[50]
  GI50: 2.55 µM
  TGI: 3.09 µM and 6.18 µM
[51]
  GI50: 5.66 µM
  TGI: 9.41 µM and 17.2 µM
[52]
  GI50: 11.5 µM
  TGI: 11.7 µM and 26 µM
[53]
  GI50: 6.29 µM
  TGI: 10.6 µM and 19.4 µM
[54]
  GI50: 6.28 µM
  TGI: 9.47 µM and 19.2 µM
[59]
  TGI: 12.8 µM
[55]
  GI50: 4.15 µM
  TGI: 19.7 µM and 13.3 µM
[56]
  GI50: 3.92 µM
  TGI: 8.54 µM and 14.3 µM
